In patent publication EP4722201A1, “3-PHENYLISOXAZOLINE-5-CARBOXAMIDE COMPOUND, AND PREPARATION METHOD THEREFOR, HERBICIDAL COMPOSITION THEREOF AND USE THEREOF” (Jiangsu Flag Chemical Industry Co., Ltd, priority 2023, dated 2024):

What was measured:
Experiment in all cases: Indoor herbicide activity determination, Seed Treatment; pre-emergence (soil spray)
Format in all cases: in vivo
Aegilops tauschii = conditions: read-out: Herbicidal activities (inhibition rate) Aegilops tauschii; for inhibition at 60 g/ha: 60 g a.i./ha; for inhibition at 120 g/ha: 120 g a.i./ha
Description: (§1) The testing method for herbicide activity of the compound of the present invention was as follows:
(§2) Seed Treatment; pre-emergence: quantitative seeds of gramineous weeds (Echinochloa crusgalli, Eleusine indica, Digitaria sanguinalis, Alopecurus japonicus, Beckmannia syzigachne, Leptochloa chinensis, Polypogon fugax, Alopecurus aequalis, Lolium multiflorum, Poa annua, Aegilops tauschii, Avena fatua, Alopecurus myosuroides, Alopecurus japonicus and Alopecurus aequalis), broad-leaved weeds (Eclipta prostrata, Amaranthus retroflexus, Rorippa indica, Malachium aquaticum, Veronica polita, Conyza canadensis, Sesbania cannabina, Sagittariatrifolia and Schoenoplectiella juncoides), and Cyperus iria were sown in plastic pots having a diameter of 7 cm and holes at the bottom and filled with nutrient soil (sandy soil, pH 6.1, organic matter 1%) respectively, the seeds were covered with an appropriate amount of soil after being sown, then the soil was wetted with water from the bottom, the seeds were cultured in a constant-temperature illuminated culture room for 24 h, and the soil was sprayed by using a 3WP-2000 traveling spray tower produced by the Nanjing Institute of Agricultural Mechanization of the Ministry of Agriculture, where a rotational speed of a main shaft was 96 mm/r, a spray height was 300 mm, an effective spraying range of a nozzle was 350 mm, a spray area was 0.35 m^2, and a flow rate at the nozzle was 390 mL/min.
(§3) Post-emergence: an appropriate quantity of seeds of gramineous weeds (Echinochloa crusgalli, Eleusine indica, Digitaria sanguinalis, Alopecurus japonicus, Beckmannia syzigachne, Leptochloa chinensis, Polypogon fugax, Alopecurus aequalis, Lolium multiflorum, Poa annua, Aegilops tauschii, Avena fatua, Alopecurus myosuroides, Alopecurus japonicus and Alopecurus aequalis), broad-leaved weeds (Eclipta prostrata, Amaranthus retroflexus, Rorippa indica, Malachium aquaticum, Veronica polita, Conyza canadensis, Sesbania cannabina, Sagittariatrifolia and Schoenoplectiella juncoides), and Cyperus iria were sown in plastic pots having a diameter of 7 cm and holes at the bottom and filled with nutrient soil (sandy soil, pH 6.1, organic matter 1%) respectively, the seeds were covered with an appropriate amount of soil after being sown, then the soil was wetted with water from the bottom, the seeds were cultured in a constant-temperature illuminated culture room until a 2-4 leaf stage, and stems and leaves underwent spray treatment. After the treatment, the test materials were placed in a laboratory and cultured in the constant-temperature illuminated culture room after the liquid was naturally dry in the shade, and results were determined 21 days later. Inhibition rate of fresh weight % = (1−(fresh weight of treated plants)/(fresh weight of control plants)) × 100% [formula]

Alopecurus myosuroides = system: Alopecurus myosuroides
Description: as §1, §2, §3

Cyperus iria = conditions: read-out: Herbicidal activities (inhibition rate) Cyperus iria; for inhibition at 60 g/ha: 60 g a.i./ha; for inhibition at 120 g/ha: 120 g a.i./ha
Description: as §1, §2, §3

Eclipta prostrata = conditions: read-out: Herbicidal activities (inhibition rate) Eclipta prostrata; for inhibition at 60 g/ha: 60 g a.i./ha; for inhibition at 120 g/ha: 120 g a.i./ha
Description: as §1, §2, §3

Eleusine indica = system: Eleusine indica
Description: as §1, §2, §3

Leptochloa chinensis = system: Leptochloa chinensis
Description: as §1, §2, §3

Alopecurus japonicus = system: Alopecurus japonicus
Description: as §1, §2, §3

Lolium multiflorum = system: Lolium multiflorum
Description: as §1, §2, §3

SMILES	inhibition at 60 g/ha (Aegilops tauschii) [%]	Herbicidal activities, Alopecurus myosuroides (inhibition rate class) (Alopecurus myosuroides; Dosage 120 g a.i./ha)	inhibition at 60 g/ha (Cyperus iria) [%]	inhibition at 60 g/ha (Eclipta prostrata) [%]	Herbicidal activities, Eleusine indica (inhibition rate class) (Eleusine indica; Dosage 120 g a.i./ha)	Herbicidal activities, Leptochloa chinensis (inhibition rate class) (Leptochloa chinensis; Dosage 120 g a.i./ha)	Herbicidal activities, Alopecurus japonicus (inhibition rate class) (Alopecurus japonicus; Dosage 120 g a.i./ha)	Herbicidal activities, Lolium multiflorum (inhibition rate class) (Lolium multiflorum; Dosage 120 g a.i./ha)	other results
C=C[C@]1(C(=O)N[C@H]2C[C@@H](C(=O)OCCCCC)C2)CC(c2cc(F)cc(Cl)c2)=NO1 [I-31]	60 to 80	A (A indicates that the inhibition rate was greater than or equal to 80% to 100%)	60 to 80	80 to 100	A (A indicates that the inhibition rate was greater than or equal to 80% to 100%)	A (A indicates that the inhibition rate was greater than or equal to 80% to 100%)			
C=C[C@]1(C(=O)N[C@H]2C[C@@H](C(=O)OCC(F)(F)C(F)F)C2)CC(c2cc(F)cc(OC(F)(F)F)c2)=NO1 [I-64]	60 to 80	A (A indicates that the inhibition rate was greater than or equal to 80% to 100%)		80 to 100	B (B indicates that the inhibition rate was greater than or equal to 60% to less than 80%)	A (A indicates that the inhibition rate was greater than or equal to 80% to 100%)	A (A indicates that the inhibition rate was greater than or equal to 80% to 100%)	A (A indicates that the inhibition rate was greater than or equal to 80% to 100%)	
C=C[C@]1(C(=O)N[C@H]2C[C@@H](C(=O)NOC(C)C)C2)CC(c2cc(F)cc(Cl)c2)=NO1 [I-36]	60 to 80	A (A indicates that the inhibition rate was greater than or equal to 80% to 100%)	60 to 80	60 to 80	A (A indicates that the inhibition rate was greater than or equal to 80% to 100%)	A (A indicates that the inhibition rate was greater than or equal to 80% to 100%)	A (A indicates that the inhibition rate was greater than or equal to 80% to 100%)	B (B indicates that the inhibition rate was greater than or equal to 60% to less than 80%)	
COC(=O)[C@@H]1C=C[C@H](NC(=O)C2(C)CC(c3cc(F)cc(C(F)(F)F)c3)=NO2)C1 (stereo partly shown) [I-495]									inhibition at 120 g/ha (Aegilops tauschii): 80 to 100%; Herbicidal activity (inhibition rate class), Alopecurus japonicus (Alopecurus japonicus; Dosage 240 g a.i./ha): A (A indicates that the inhibition rate was greater than or equal to 80% to 100%); Herbicidal activity (inhibition rate class), Alopecurus myosuroides (Alopecurus myosuroides; Dosage 240 g a.i./ha): A (A indicates that the inhibition rate was greater than or equal to 80% to 100%); inhibition at 120 g/ha (Cyperus iria): 80 to 100%; inhibition at 120 g/ha (Eclipta prostrata): 60 to 80%; Herbicidal activity (inhibition rate class), Eleusine indica (Eleusine indica; Dosage 240 g a.i./ha): A (A indicates that the inhibition rate was greater than or equal to 80% to 100%); Herbicidal activity (inhibition rate class), Leptochloa chinensis (Leptochloa chinensis; Dosage 240 g a.i./ha): A (A indicates that the inhibition rate was greater than or equal to 80% to 100%); Herbicidal activity (inhibition rate class), Lolium multiflorum (Lolium multiflorum; Dosage 240 g a.i./ha): A (A indicates that the inhibition rate was greater than or equal to 80% to 100%)
C=C[C@]1(C(=O)N[C@H]2C[C@@H](C(=O)O[C@H](C)COC)C2)CC(c2cc(F)cc(Cl)c2)=NO1 [I-33]	60 to 80	A (A indicates that the inhibition rate was greater than or equal to 80% to 100%)	60 to 80	80 to 100	A (A indicates that the inhibition rate was greater than or equal to 80% to 100%)	A (A indicates that the inhibition rate was greater than or equal to 80% to 100%)	A (A indicates that the inhibition rate was greater than or equal to 80% to 100%)	A (A indicates that the inhibition rate was greater than or equal to 80% to 100%)	
C=CC1(C(=O)N[C@H]2C[C@@H](C(=O)OCC[S+](C)[O-])C2)CC(c2cc(F)cc(F)c2)=NO1 (stereo partly shown) [I-9]									inhibition at 120 g/ha (Aegilops tauschii): 80 to 100%; Herbicidal activities, Alopecurus japonicus (inhibition rate class) (Alopecurus japonicus; Dosage 240 g a.i./ha): A (A indicates that the inhibition rate was greater than or equal to 80% to 100%); Herbicidal activities, Alopecurus myosuroides (inhibition rate class) (Alopecurus myosuroides; Dosage 240 g a.i./ha): A (A indicates that the inhibition rate was greater than or equal to 80% to 100%); inhibition at 120 g/ha (Cyperus iria): 80 to 100%; inhibition at 120 g/ha (Eclipta prostrata): 60 to 80%; Herbicidal activities, Eleusine indica (inhibition rate class) (Eleusine indica; Dosage 240 g a.i./ha): A (A indicates that the inhibition rate was greater than or equal to 80% to 100%); Herbicidal activities, Leptochloa chinensis (inhibition rate class) (Leptochloa chinensis; Dosage 240 g a.i./ha): A (A indicates that the inhibition rate was greater than or equal to 80% to 100%); Herbicidal activities, Lolium multiflorum (inhibition rate class) (Lolium multiflorum; Dosage 240 g a.i./ha): A (A indicates that the inhibition rate was greater than or equal to 80% to 100%)
C=C[C@]1(C(=O)N[C@H]2C[C@@H](C(=O)OCC=CC)C2)CC(c2cc(F)cc(Cl)c2)=NO1 [I-32]	60 to 80	A (A indicates that the inhibition rate was greater than or equal to 80% to 100%)	60 to 80	80 to 100	A (A indicates that the inhibition rate was greater than or equal to 80% to 100%)	A (A indicates that the inhibition rate was greater than or equal to 80% to 100%)	B (B indicates that the inhibition rate was greater than or equal to 60% to less than 80%)	B (B indicates that the inhibition rate was greater than or equal to 60% to less than 80%)	
C=C[C@]1(C(=O)N[C@H]2C[C@@H](C(=O)OCCOCC)C2)CC(c2cc(F)cc(OC(F)(F)F)c2)=NO1 [I-65]	80 to 100	A (A indicates that the inhibition rate was greater than or equal to 80% to 100%)		60 to 80	B (B indicates that the inhibition rate was greater than or equal to 60% to less than 80%)	A (A indicates that the inhibition rate was greater than or equal to 80% to 100%)	A (A indicates that the inhibition rate was greater than or equal to 80% to 100%)	A (A indicates that the inhibition rate was greater than or equal to 80% to 100%)	
C=C[C@]1(C(=O)N[C@H]2C[C@@H](C(=O)NOC)C2)CC(c2cc(F)cc(F)c2)=NO1 [I-23]	80 to 100	A (A indicates that the inhibition rate was greater than or equal to 80% to 100%)	80 to 100	60 to 80	A (A indicates that the inhibition rate was greater than or equal to 80% to 100%)	A (A indicates that the inhibition rate was greater than or equal to 80% to 100%)	A (A indicates that the inhibition rate was greater than or equal to 80% to 100%)	A (A indicates that the inhibition rate was greater than or equal to 80% to 100%)	
C=C[C@]1(C(=O)N[C@H]2C[C@@H](C(=O)O[C@@H](C)COC)C2)CC(c2cc(F)cc(Cl)c2)=NO1 [I-34]	60 to 80	A (A indicates that the inhibition rate was greater than or equal to 80% to 100%)	60 to 80	80 to 100	A (A indicates that the inhibition rate was greater than or equal to 80% to 100%)	A (A indicates that the inhibition rate was greater than or equal to 80% to 100%)	B (B indicates that the inhibition rate was greater than or equal to 60% to less than 80%)	B (B indicates that the inhibition rate was greater than or equal to 60% to less than 80%)	
